Data reported in US12390472B2 (SUZHOU SINOVENT PHARMACEUTICALS CO., LTD., priority 2018, dated 2025).
Where two headings read alike, the source gives them in different places.

Experiments:
Pfeiffer = test: Methylated lysine of histone-H3 (H3K27Me3) detection by ELISA, Pfeiffer cells; assay type: cell-based, human; conditions: 7 days treatment, H3K27Me3 normalized to total histone-3, read-out: IC50 of cell methylation, Pfeiffer
Experimental: (§1) The operations for adherent cells and suspension cells cultured in 96-well plates were slightly different after they had been treated with compound (4-fold dilution 20 uM-0.009 nM, 3 duplicate wells) for 7 days, and the operations are summarized as follows: For adherent cells, after discarding the medium, 75 uL of 1-fold hypotonic lysis buffer (10 mM Tris-HCl, pH 7.5, containing halt protease inhibitor and PMSF with a final concentration of 1 mM) was added; the plate was frozen at −80° C. for at least 1 h or overnight; once the plate was taken away from the −80° C. environment, 120 uL (to a final volume of about 195 uL) of 1-fold hypotonic lysis buffer (containing protease inhibitor) was added, and the plate was thawed at room temperature and shaken for 2 min for mixing; and 8 uL (to a final volume of about 203 uL) of 2.5 M NaCl was added to each well to a final NaCl concentration of 100 mM and then the plate was shaken for an additional 2 min for mixing.
(§2) For suspension cells (final volume of medium was 100 uL/well), 25 uL of 5-fold hypotonic lysis buffer (50 mM Tris-HCl, pH 7.5, containing halt protease inhibitor and PMSF with a final concentration of 1 mM) was added, and the plate was frozen at −80° C. for at least 1 h or overnight. Once the plate was taken away from the −80° C. environment, 20 uL of 0.625 M NaCl was added to each well to a final NaCl concentration of about 100 mM, and the mixture was mixed well.
(§3) 75 uL or 100 uL of sample (with duplicate wells provided) was added to two 96-well ELISA plates (ThermoFisher Scientific; Immulon 4HBX 3885) and the plates were coated with total protein lysate and incubated overnight at 4° C. 50 uL of lysate was retained for protein quantitation if necessary. The sealing of the plates must be ensured. The plates were washed twice with 300 uL of 1×PBST (PBS containing 0.05% Tween 20) per well. Each well was blocked with 300 uL of dilution (PBS+2% BSA+0.05% Tween 20), incubated for 2 h at room temperature, and washed twice with 1×PBST. Primary antibodies were diluted with a dilution solution containing 1% BSA+0.05% Tween 20. 75-100 uL of anti-H3K27Me3 antibody (CST; 9733; 50% glycerol stock, 1:1,000) or anti-total histone-3 antibody (Abcam; ab1791; 50% glycerol stock, 1:10,000) was added to each well. The plates were incubated for 90 min at room temperature or incubated overnight at 4° C. The plates were washed three times with 1×PBST. 75-100 uL of anti-Rb-IgG-HRP secondary antibody (Cell Signaling Technology; 7074) was added per well, 1:2000 diluted secondary antibody for anti-H3K 27Me3 plate and 1:6000 diluted secondary antibody for anti-histone total histone-3 plate. The plates were incubated at room temperature for 90 min. The plate assayed with anti-histone-3 antibody was used to normalize the data for the corresponding plate assayed with anti-H3K 27me3. The plates must be washed at least three times with 1×PBST after primary or secondary antibody incubation. The plates were assayed by adding 75-100 uL of 3,3′,5,5′-tetramethylbenzidine substrate (CST or ThermoFisher Scientific; TMBS) per well and incubated away from light for 30 min at 37° C. The reaction was terminated by adding 100 uL of 0.5 M H2SO4 per well. The absorbance was read at 450 nm. Curve fitting was performed using Graph Pad program.

WSU-DLCL2 = test: Methylated lysine of histone-H3 (H3K27Me3) detection by ELISA, WSU-DLCL2 cells; assay type: cell-based; conditions: WSU-DLCL2, 7 days treatment, H3K27Me3 normalized to total histone-3, read-out: IC50 of cell methylation, WSU-DLCL2
Experimental: as §1, §2, §3

EZH2 enzyme complex = EZH2 enzyme complex (Homo sapiens (Human), UniProt Q15910); test: Test on EZH2 inhibitory activity (TR-FRET); assay type: biochemical; conditions: EZH2 enzyme complex 25 ng/uL, histone H3 peptide 4 uM, SAM 2 uM, 300 min; read-out: IC50 of EZH2 inhibition
Chain of EZH2 enzyme complex (Q15910 whole entry): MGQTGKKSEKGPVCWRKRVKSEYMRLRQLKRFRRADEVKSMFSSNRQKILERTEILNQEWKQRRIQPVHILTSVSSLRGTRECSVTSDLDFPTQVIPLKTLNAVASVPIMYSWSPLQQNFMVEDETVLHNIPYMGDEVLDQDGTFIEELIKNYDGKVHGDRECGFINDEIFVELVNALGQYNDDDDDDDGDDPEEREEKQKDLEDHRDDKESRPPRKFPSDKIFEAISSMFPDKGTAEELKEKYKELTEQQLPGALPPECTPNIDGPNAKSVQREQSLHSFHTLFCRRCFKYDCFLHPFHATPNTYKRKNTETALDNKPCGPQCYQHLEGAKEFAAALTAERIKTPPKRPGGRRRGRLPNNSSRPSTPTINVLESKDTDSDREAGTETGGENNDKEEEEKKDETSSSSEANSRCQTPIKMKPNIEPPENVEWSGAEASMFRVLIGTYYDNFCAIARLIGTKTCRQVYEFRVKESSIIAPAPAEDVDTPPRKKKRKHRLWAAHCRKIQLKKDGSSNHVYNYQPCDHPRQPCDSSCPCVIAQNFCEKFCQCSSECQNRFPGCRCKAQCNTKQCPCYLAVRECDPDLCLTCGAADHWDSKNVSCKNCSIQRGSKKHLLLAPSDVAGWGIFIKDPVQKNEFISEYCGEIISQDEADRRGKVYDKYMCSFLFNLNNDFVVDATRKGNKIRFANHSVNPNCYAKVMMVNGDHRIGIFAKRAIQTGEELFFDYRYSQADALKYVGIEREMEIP
Chain of EZH2 enzyme complex (O75530 whole entry partner): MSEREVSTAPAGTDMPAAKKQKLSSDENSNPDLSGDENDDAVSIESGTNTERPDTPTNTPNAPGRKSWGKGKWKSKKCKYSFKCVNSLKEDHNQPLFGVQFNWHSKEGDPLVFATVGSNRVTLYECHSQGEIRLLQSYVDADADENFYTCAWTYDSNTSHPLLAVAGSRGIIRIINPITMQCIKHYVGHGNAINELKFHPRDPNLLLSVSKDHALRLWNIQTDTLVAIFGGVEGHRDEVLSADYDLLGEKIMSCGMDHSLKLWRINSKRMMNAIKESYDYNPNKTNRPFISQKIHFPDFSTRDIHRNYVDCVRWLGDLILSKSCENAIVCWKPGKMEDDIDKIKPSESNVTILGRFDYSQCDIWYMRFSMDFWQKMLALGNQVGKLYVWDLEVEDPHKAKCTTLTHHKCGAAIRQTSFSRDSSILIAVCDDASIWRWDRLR
Chain of EZH2 enzyme complex (Q15022 whole entry partner): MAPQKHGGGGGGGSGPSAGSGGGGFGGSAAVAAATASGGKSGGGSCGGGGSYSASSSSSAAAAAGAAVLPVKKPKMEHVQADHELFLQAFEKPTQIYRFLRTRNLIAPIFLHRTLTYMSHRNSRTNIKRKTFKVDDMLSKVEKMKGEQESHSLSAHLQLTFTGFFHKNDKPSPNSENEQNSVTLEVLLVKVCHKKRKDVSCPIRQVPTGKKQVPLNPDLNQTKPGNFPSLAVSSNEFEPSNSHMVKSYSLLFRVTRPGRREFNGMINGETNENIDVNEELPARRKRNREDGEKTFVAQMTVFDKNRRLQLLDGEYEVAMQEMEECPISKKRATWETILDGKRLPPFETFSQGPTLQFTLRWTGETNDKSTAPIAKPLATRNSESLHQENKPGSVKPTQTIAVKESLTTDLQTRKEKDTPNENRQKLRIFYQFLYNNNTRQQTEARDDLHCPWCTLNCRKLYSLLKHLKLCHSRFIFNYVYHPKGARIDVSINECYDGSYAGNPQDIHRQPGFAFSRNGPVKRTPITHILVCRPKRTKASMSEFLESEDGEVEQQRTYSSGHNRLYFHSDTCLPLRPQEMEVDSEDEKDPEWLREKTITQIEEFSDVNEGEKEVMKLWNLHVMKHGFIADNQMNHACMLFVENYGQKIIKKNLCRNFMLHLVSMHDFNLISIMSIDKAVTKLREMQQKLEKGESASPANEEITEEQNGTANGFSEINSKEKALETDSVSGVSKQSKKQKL
Experimental: • EZH2 enzyme complex: 25 ng/uL • Histone H3 peptide substrate: 4 uM • SAM: 2 uM • Reaction time: 300 min Procedures • 1. Each compound disclosed herein was diluted with 1×HMT buffer and transferred to a 384-well assay plate at 3 uL per well; • 2. The EZH2 enzyme solution was prepared with 1×HMT buffer and transferred to the 384-well assay plate at 2 uL per well; • 3. The above assay plate was incubated for 30 min; • 4. A mixture solution of SAM and histone H3 peptide substrate at 2-fold concentration was prepared with 4×HMT buffer; • 5. 5 uL of the mixture solution of SAM and substrate was added to each well of the assay plate to react at room temperature, and the assay plate was sealed with plastic; • 6. After incubation for 5 h, 10 uL of TR-FRET detection buffer containing Tb-labeled antibody and dye-labeled receptor was added to each well of the assay plate; • 7. After incubation for 1 h at room temperature, the assay plate was detected; • 8.

SMILES | IC50 (Pfeiffer) | IC50 (WSU-DLCL2; Homo sapiens, WSUDLCL2, 168 h) | IC50 (EZH2 enzyme complex) | IC50 (Pfeiffer; Homo sapiens, 168 h) | IC50 (WSU-DLCL2)
CCN(c1cc(O[C@H]2C[C@H](CN3C[C@@H](C)O[C@@H](C)C3)C2)cc(C(=O)NCc2c(C)cc(C)[nH]c2=O)c1Cl)C1CCOCC1 [Example 30, 2-chloro-N-((4,6-dimethyl-2-oxo-1,2-dihydropyridin-3-yl)methyl)-5-(trans-3-((cis-2,6-dimethylmorpholinyl)methyl)cyclobutoxy)-3-(ethyl(tetrahydro-2H-pyran-4-yl)amino)benzamide] | < 50 nM | 50 to 500 nM | 10 to 100 nM |  | 
CCN(c1cc(O[C@H]2C[C@H](CN3C[C@@H](C)O[C@@H](C)C3)C2)cc(C(=O)NCc2c(C)cc(C)[nH]c2=O)c1C)C1CCOCC1 [Example 31, N-((4,6-dimethyl-2-oxo-1,2-dihydropyridin-3-yl)methyl)-5-(trans-3-((cis-2,6-dimethylmorpholinyl)methyl)cyclobutoxy)-3-(ethyl(tetrahydro-2H-pyran-4-yl)amino)-2-methylbenzamide] |  | < 50 nM | 10 to 100 nM | < 50 nM | 
CCN(c1cc(OC2CC(N3CCOCC3)C2)cc(C(=O)NCc2c(C)cc(C)[nH]c2=O)c1C)[C@H]1CC[C@H](N(C)CCOC)CC1 (stereo partly drawn) [Example 34, N-((4,6-dimethyl-2-oxo-1,2-dihydropyridin-3-yl)methyl)-3-(ethyl(trans-4-((2-methoxyethyl)(methyl)amino)cyclohexyl)amino)-2-methyl-5-(3-morpholinylcyclobutoxy)benzamide] |  | 500 to 1000 nM | 10 to 100 nM | < 50 nM | 
CCN(c1cc(O[C@H]2C[C@H](N3C[C@@H](C)O[C@@H](C)C3)C2)cc(C(=O)NCc2c(C)cc(C)[nH]c2=O)c1C)[C@H]1C[C@@H](C)O[C@@H](C)C1 [Example 35, N-((4,6-dimethyl-2-oxo-1,2-dihydropyridin-3-yl)methyl)-5-(trans-3-(cis-2,6-dimethylmorpholinyl)cyclobutoxy)-3-((cis-2,6-dimethyltetrahydro-2H-pyran-4-yl)(ethyl)amino)-2-methylbenzamide] |  | > 1000 nM | 10 to 100 nM | 50 to 500 nM | 
CCN(c1cc(O[C@H]2C[C@H](CN3CCCCC3)C2)cc(C(=O)NCc2c(C)cc(C)[nH]c2=O)c1C)C1CCOCC1 [Example 36, N-((4,6-dimethyl-2-oxo-1,2-dihydropyridin-3-yl)methyl)-3-(ethyl(tetrahydro-2H-pyran-4-yl)amino)-2-methyl-5-(trans-3-(piperidin-1-ylmethyl)cyclobutoxy)benzamide] |  | 50 to 500 nM | 10 to 100 nM | < 50 nM | 
CCN(c1cc(O[C@H]2C[C@H](N3CCC(C)CC3)C2)cc(C(=O)NCc2c(C)cc(C)[nH]c2=O)c1C)C1CCOCC1 [Example 37, N-((4,6-dimethyl-2-oxo-1,2-dihydropyridin-3-yl)methyl)-3-(ethyl(tetrahydro-2H-pyran-4-yl)amino)-2-methyl-5-(trans-3-(4-methylpiperidin-1-yl)cyclobutoxy)benzamide] |  | 50 to 500 nM | < 10 nM | < 50 nM | 
CCN(c1cc(O[C@H]2C[C@@H](N3C[C@@H](C)O[C@@H](C)C3)C2)cc(C(=O)NCc2c(C)cc(C)[nH]c2=O)c1C)[C@@H]1C[C@@H](C)O[C@@H](C)C1 [Example 38, N-((4,6-dimethyl-2-oxo-1,2-dihydropyridin-3-yl)methyl)-5-((1S,3S)-3-((2S,6R)-2,6-dimethylmorpholinyl)cyclobutoxy)-3-(((2R,4s,6S)-2,6-dimethyltetrahydro-2H-pyran-4-yl)(ethyl)amino)-2-methylbenzamide] |  | > 1000 nM | 100 to 1000 nM | 500 to 1000 nM | 
CCN(c1cc(O[C@H]2C[C@H](N3C[C@@H](C)O[C@@H](C)C3)C2)cc(C(=O)NCc2c(C)cc(C)[nH]c2=O)c1C)[C@@H]1C[C@@H](C)O[C@@H](C)C1 [Example 39, N-((4,6-dimethyl-2-oxo-1,2-dihydropyridin-3-yl)methyl)-5-(trans-3-(cis-2,6-dimethylmorpholinyl)cyclobutoxy)-3-((trans-2,6-dimethyltetrahydro-2H-pyran-4-yl)(ethyl)amino)-2-methylbenzamide] |  | > 1000 nM | 100 to 1000 nM | 500 to 1000 nM | 
CCN(c1cc(O[C@H]2C[C@H](N3C[C@@H](C)O[C@@H](C)C3)C2)cc(C(=O)NCc2c(C)cc(C)[nH]c2=O)c1C)C1CCOC1 (stereo partly drawn) [Example 46, N-((4,6-dimethyl-2-oxo-1,2-dihydropyridin-3-yl)methyl)-5-(trans-3-(cis-2,6-dimethylmorpholinyl)cyclobutoxy)-3-(ethyl(tetrahydrofuran-3-yl)amino)-2-methylbenzamide] |  | 50 to 500 nM | < 10 nM | 500 to 1000 nM | 
CCN(c1cc(O[C@H]2C[C@H](N3C[C@@H](C)O[C@@H](C)C3)C2)cc(C(=O)NCc2c(C)cc(C)[nH]c2=O)c1Cl)C1CCOCC1 [Example 48, 2-chloro-N-((4,6-dimethyl-2-oxo-1,2-dihydropyridin-3-yl)methyl)-5-(trans-3-(cis-2,6-dimethylmorpholinyl)cyclobutoxy)-3-(ethyl(tetrahydro-2H-pyran-4-yl)amino)benzamide] |  | 50 to 500 nM | 10 to 100 nM | > 1000 nM | 
CCN(c1cc(O[C@H]2C[C@H](N3CC4CCC(C3)O4)C2)cc(C(=O)NCc2c(C)cc(C)[nH]c2=O)c1Cl)C1CCOCC1 [Example 49, 5-(trans-3-(8-oxa-3-azabicyclo[3.2.1]octan-3-yl)cyclobutoxy)-2-chloro-N-((4,6-dimethyl-2-oxo-1,2-dihydropyridin-3-yl)methyl)-3-(ethyl(tetrahydro-2H-pyran-4-yl)amino)benzamide] |  | 50 to 500 nM | 10 to 100 nM | > 1000 nM | 
CCN(c1cc(O[C@H]2C[C@H](N3CCOCC3)C2)cc(C(=O)N(C)Cc2c(C)cc(C)[nH]c2=O)c1C)C1CCOCC1 [Example 51, N-((4,6-dimethyl-2-oxo-1,2-dihydropyridin-3-yl)methyl)-3-(ethyl(tetrahydro-2H-pyran-4-yl)amino)-N,2-dimethyl-5-(trans-3-morpholinylcyclobutoxy)benzamide] |  | > 1000 nM | 100 to 1000 nM | > 1000 nM | 
CCN(c1cc(O[C@H]2C[C@H](CN3C[C@@H](C)O[C@@H](C)C3)C2)cc(C(=O)NCc2c(C)cc(C)[nH]c2=O)c1Cl)C1CCOCC1 [Example 53, 2-chloro-N-((4,6-dimethyl-2-oxo-1,2-dihydropyridin-3-yl)methyl)-5-(trans-3-((cis-2,6-dimethylmorpholinyl)methyl)cyclobutoxy)-3-(ethyl(tetrahydro-2H-pyran-4-yl)amino)benzamide] | 500 to 1000 nM |  | 10 to 100 nM |  | 50 to 500 nM
CCN(c1cc(O[C@H]2C[C@@H](N3CCC(C)CC3)C2)cc(C(=O)NCc2c(C)cc(C)[nH]c2=O)c1C)C1CCOCC1 [Example 56, N-((4,6-dimethyl-2-oxo-1,2-dihydropyridin-3-yl)methyl)-3-(ethyl(tetrahydro-2H-pyran-4-yl)amino)-2-methyl-5-(cis-3-(4-methylpiperidin-1-yl)cyclobutoxy)benzamide] |  | 50 to 500 nM | 10 to 100 nM | 50 to 500 nM | 
Cc1cc(C)c(CNC(=O)c2cc(O[C@H]3C[C@H](N4C[C@@H](C)O[C@@H](C)C4)C3)cc(NC3CCOCC3)c2C)c(=O)[nH]1 [Example 57, N-((4,6-dimethyl-2-oxo-1,2-dihydropyridin-3-yl)methyl)-5-(trans-3-(cis-2,6-dimethylmorpholino)cyclobutoxy)-2-methyl-3-((tetrahydro-2H-pyran-4-yl)amino)benzamide] |  | > 1000 nM | > 1000 nM | > 1000 nM | 
